# Measurements as given in patent publication US10238630B2, “Use of eribulin and poly (ADP ribose) polymerase (PARP) inhibitors as combination therapy for the treatment of cancer” (Eisai R&D Management Co., Ltd., priority 2014, dated 2019).
# “Also recorded” adds a separate entry of the source. Structures can show the parent of a compound that is named as a salt.
# How the values were obtained:
# BR1474 = experiment: Antitumor effect in patient-derived xenograft (PDx) BR1474 of triple negative breast cancer in athymic mice; format: in vivo, human
# total Akt levels = experiment: Pharmacodynamic biomarker analysis of total Akt and PI3K pathway proteins in tumor lysates by reverse phase protein microarray (RPMA); format: in vivo
# Procedure: Multiple proteins in the P13K pathway were assessed by reverse phase protein microarray (RPMA) in tumor lysates. Akt levels decreased in all models except MDA-MB-231 (wild type for BRCA1 and 2 and PTEN) following single agent and combination treatments. This effect is specific for Akt as no changes in total PI3K, Erk, or Src were observed. Phosphorylated Akt (S473 & T308) decreased by E7389 and combination treatment at 48 hours in MDA-MB-468 tumors. […] No significant effects of treatment were observed on phosphorylated Src (Y527) levels in any tumor models.
# [1] = test system: MDA-MB-231 human breast cancer xenografts; experiment: Antitumor activity against subcutaneous MDA-MB-231 human breast cancer xenografts in athymic mice (two studies); format: in vivo
# Procedure: MDA-MB-231 human triple negative breast cancer cells are wild type for BRCA1 and 2 and PTEN. Cells were maintained in monolayer cultures in RPMI-1640 growth medium supplemented with 10% fetal bovine serum at 37° C. in a 5% CO2 humidified incubator. On the day of inoculation, cells were harvested by trypsinization, washed, and resuspended in ice-cold PBS. Female immunodeficient athymic mice were inoculated subcutaneously near the right axillary area with MDA-MB-231 cells (5×10^6) in a 1:1 ratio (50 μL each) with Matrigel™ in a volume of 0.1 mL in phosphate buffered saline, using a 26-gauge needle. A total of 94 mice, approximately 6 weeks old were implanted with MDA-MB-231 cells.
# E7449, carboplatin and E7389 were evaluated as single agents and in combination for antitumor activity against MDA-MB-231 human breast cancer xenografts in athymic mice. The first experiment consisted of a vehicle control group, an E7449 single agent group, 2 groups treated with single agent E7389 and 2 combination drug-treated groups (Table 5). Thirty-nine mice were inoculated with MDA-MB-231 cells and on Day 21 following implantation, tumor volumes were measured and mice were randomized into the 6 treatment groups based on tumor volume (average of 300 mm^3). Following randomization drug treatment was initiated. Each group was composed of 5 mice for a total of 30 mice on the first day of treatment. E7449 was formulated in 0.5% methyl cellulose and orally administered once daily for 28 days at 100 mg/kg based on body weight at 0.1 mL per 10 g. E7389 was formulated in saline and was intravenously administered once every 4 days, 4 times (Day 21, 25, 29, and 33) at a dosage of 0.05 or 0.1 mg/kg as single agent or in combination with E7449, based on body weight at 0.1 mL per 10 g. The control group was treated with oral vehicle (0.5% methyl cellulose in water) daily and intravenous vehicle (saline) once every 4 days, 4 times. E7449 or vehicle was administered first and when dosing of all animals was complete E7389 was administered to animals receiving the combination.
# The second experiment consisted of a vehicle control group, 2 groups treated with single agent E7449, 2 groups treated with single agent carboplatin and 3 combination drug-treated groups (Table 6). Fifty five mice were inoculated with MDA-MB-231 cells and on Day 18 following implantation, tumor volumes were measured and mice were randomized into 8 treatment groups based on tumor volume (average of 300 mm^3). Following randomization drug treatment was initiated. Each group consisted of 5 mice for a total of 40 mice on the first day of treatment. E7449, formulated in 0.5% methyl cellulose was orally administered daily for 28 days, at 60 or 100 mg/kg based on body weight at 0.1 mL per 10 g. Carboplatin was formulated in saline and was intravenously administered once on the first day of treatment (Day 18) at a dosage of 15 or 60 mg/kg as a single agent or in combination with E7449 based on body weight at 0.1 mL per 10 g. The control group was treated with oral vehicle (0.5% methyl cellulose in water) daily and intravenous vehicle (saline) once on Day 18. E7449 or vehicle was administered first and when dosing of all animals was complete carboplatin was administered to animals receiving the combination.
# Drug treatment was initiated 21 or 18 days post tumor implantation, in the E7389 and carboplatin combination studies respectively, and continued for 28 days. […]
# [2] = HCC1806 tumors, early time points
Compound,"antitumor effect (tumor volume) (BR1474; E7389 0.3 mg/kg, single agent)","phosphorylated Akt (S473 & T308) (total Akt levels; MDA-MB-468 tumors, 48 hours)","inhibition of tumor growth versus vehicle ([1]; E7389 0.1 mg/kg IV Q4Dx4, single agent, P<0.05 on Day 42, 0.1 mg/kg)","antitumor effect (tumor volume), dose dependence ([1]; E7389 0.05 and 0.1 mg/kg IV Q4Dx4, single agent)",sensitivity of the model among the three PDx models (BR1474; E7449 as a single agent),phosphorylated Akt (S473 & T308) (total Akt levels; [2]),phosphorylated Erk (T202/Y204) (total Akt levels; [2]),"antitumor effect (tumor volume) ([1]; E7389 combination study, E7449 100 mg/kg PO QDx28, single agent, 100 mg/kg)","antitumor effect (tumor volume) ([1]; carboplatin combination study, E7449 60 or 100 mg/kg PO QDx28, single agent)"
"C=C1C[C@@H]2CC[C@@]34C[C@H]5OC6[C@@H](O[C@H]7CC[C@H](CC(=O)C[C@@H]8[C@@H](OC)[C@@H](C[C@H](O)CN)O[C@H]8C[C@H]8O[C@@H](CC[C@@H]1O2)C[C@@H](C)C8=C)O[C@@H]7[C@@H]6O3)[C@H]5O4 [E7389, 11, 15:18,21:24,28-triepoxy-7,9-ethano-12,15-methano-9H,15H-furo[3,2-i]furo[2′,3′:5,6]pyrano[4,3-b] [1,4]dioxacyclopentacosin-5(4H)-one, 2-[(2S)-3-amino-2-hydroxypropyl]hexacosahydro-3-methoxy-26-methyl-20,27-bis(methylene)-, (2R,3R,3aS,7R,8aS,9S,10aR,11S,12R,13aR,13bS,15S,18S,21S,24S,26R,28R,29aS)-methanesulfonate (salt)]",enhanced antitumor activity,decreased,statistically significant effect; also recorded: Statistically significant inhibition of tumor growth,Dose dependent antitumor activity,–,–,–,–,–
O=c1[nH]nc2c3c(cccc13)N=C(CN1Cc3ccccc3C1)N2 [E7449],–,–,–,–,most sensitive,Increased,Increased,did not significantly inhibit tumor growth; also recorded: No antitumor activity,did not significantly inhibit tumor growth; also recorded: No antitumor activity
